According to ChEMBL document CHEMBL1128657, “Synthesis and in vitro biological evaluation of new triphenylethylene platinum (II) complexes” (Bioorg Med Chem Lett, 1995):
pIC50: −log10 of the molar value.

How the values were obtained:
MDA-MB-231 = assay: In vitro inhibition of estrogen receptor negative […] human mammary carcinoma cell proliferation; format: functional, cell-based
MCF7 = assay: In vitro inhibition of estrogen receptor positive MCF-7 human mammary carcinoma cell proliferation; format: functional, cell-based

Row | pIC50 (MDA-MB-231; mda-mb-231) | pIC50 (MCF7; mcf7) | pIC50 (MDA-MB-231; Homo sapiens, MDA-MB-231) | pIC50 (MCF7; Homo sapiens, MCF7) | Compound
1 | 5.47 | 5.52 | – | – | CISPLATIN
2 | – | – | 4.55 | 4.77 | CC/C(=C(\c1ccccc1)c1ccc(OCCN(C)C)cc1)c1ccccc1 [TAMOXIFEN]
3 | – | – | 5.64 | 4.85 | COc1ccc(C(=C(CCCCCCCCCCCNCCN)c2ccccc2)c2ccc(OC)cc2)cc1
